From ChEMBL document CHEMBL4619768, “Limonoids from Cipadessa baccifera” (J Nat Prod, 2020)
Activity calls are given as the source filed them. The rule behind the calls is not given here.

These molecules were tested on Plasmodium falciparum (assay: Antimalarial activity against chloroquine-resistant ring-stage Plasmodium falciparum Dd2 incubated for 72 hrs by SYBR green1 dye-based assay). Conditions: not given.
Format: functional, organism-based

Row | Structure (SMILES) | Activity
1 | COC(=O)[C@@H](O)[C@H]1C(C)(C)[C@H](OC(C)=O)C[C@@H]2O[C@]34CC(=O)O[C@@H](c5ccoc5)[C@]3(C)C[C@@H](C(=O)[C@@H]4C)[C@@]21C | inactive
2 | COC(=O)C[C@H]1C(C)(C)[C@@H](OC(C)=O)[C@H](O)[C@@H]2OC3=C(C)C4=CC(=O)O[C@@H](c5ccoc5)[C@]4(C)[C@@H](O)[C@@H]3[C@@]21C | inactive
3 | C=C1C2[C@H](O)C[C@@]3(C)[C@H](c4ccoc4)CC(=O)C[C@]13O[C@H]1[C@@H](OC(=O)[C@H](C)CC)[C@H](O)C(C)(C)[C@H](CC(=O)OC)[C@@]21C | inactive
4 | COC(=O)C[C@H]1C(C)(C)[C@@H](O)[C@H](OC(C)=O)[C@@H]2OC3=C(C)C4=CC(=O)O[C@@H](c5ccoc5)[C@]4(C)[C@@H](O)[C@@H]3[C@@]21C | inactive
5 | C=C1[C@@]23CC(=O)C[C@@H](c4ccoc4)[C@]2(C)C[C@@H](OC(C)=O)[C@]1(O)[C@@]1(C)[C@@H](O3)[C@@H](OC(=O)C(C)C)[C@H](O)C(C)(C)[C@@H]1CC(=O)OC | inactive
6 | COC(=O)[C@@H](O)[C@H]1C(C)(C)[C@H](OC(C)=O)C[C@@H]2O[C@]34CC(=O)O[C@@H](c5ccoc5)[C@]3(C)[C@@H](OC(C)=O)[C@@H](C(=O)[C@@H]4C)[C@@]21C | inactive
7 | COC(=O)[C@@H](O)[C@H]1C(C)(C)[C@H](OC(C)=O)C[C@@H]2OC3=C(C)C4=CC(=O)O[C@@H](c5ccoc5)[C@]4(C)[C@@H](OC(C)=O)[C@@H]3[C@@]21C | inactive
8 | COC(=O)[C@@H](O)[C@H]1C(C)(C)[C@H](OC(C)=O)[C@H](OC(C)=O)[C@@H]2O[C@]34CC(=O)O[C@@H](c5ccoc5)[C@]3(C)C[C@@H](C(=O)[C@@H]4C)[C@@]21C | inactive
9 | C=C1C2[C@H](O)C[C@@]3(C)[C@H](c4ccoc4)CC(=O)C[C@]13O[C@H]1[C@@H](OC(=O)[C@@H](C)CC)[C@H](O)C(C)(C)[C@H](CC(=O)OC)[C@@]21C | inactive
10 | COC(=O)[C@@H](O)[C@H]1C(C)(C)[C@H](OC(C)=O)[C@H](OC(C)=O)[C@@H]2O[C@]34CC(=O)O[C@@H](c5ccoc5)[C@]3(C)[C@@H](OC(C)=O)[C@@H](C(=O)[C@@H]4C)[C@@]21C | inactive

Same assay, conditions: Dd2, 72 h

Row | IC50 [µM] | Structure (SMILES)
11 | 20 | C=C1[C@]2(O)CC[C@@]3(C)[C@H](c4ccoc4)CC(=O)C[C@]13O[C@H]1[C@@H](OC(=O)C(C)C)[C@H](O)C(C)(C)[C@H](CC(=O)OC)[C@]12C
12 | 28 | COC(=O)C[C@H]1C(C)(C)[C@@H](O)[C@H](OC(=O)C(C)C)[C@@H]2O[C@]34CC(=O)O[C@@H](c5ccoc5)[C@]3(C)C[C@@H](C(=O)[C@@H]4C)[C@@]21C
13 | 16.9 | COC(=O)[C@@H](O)[C@H]1C(C)(C)[C@@H](O)[C@H](OC(=O)C(C)C)[C@@H]2O[C@]34CC(=O)O[C@@H](c5ccoc5)[C@]3(C)C[C@@H](C(=O)[C@@H]4C)[C@@]21C
14 | 12.3 | C=C1[C@]2(O)CC[C@@]3(C)[C@H](c4ccoc4)CC(=O)C[C@]13O[C@H]1[C@@H](OC(=O)[C@@H](C)CC)[C@H](O)C(C)(C)[C@H](CC(=O)OC)[C@]12C
15 | 23.1 | C=C1[C@@]23CC(=O)C[C@@H](c4ccoc4)[C@]2(C)C[C@@H](OC(C)=O)[C@]1(O)[C@@]1(C)[C@@H](O3)[C@@H](OC(=O)[C@H](C)CC)[C@H](O)C(C)(C)[C@@H]1CC(=O)OC
16 | 16.3 | C=C1[C@]2(O)CC[C@@]3(C)[C@H](c4ccoc4)CC(=O)C[C@]13O[C@H]1[C@@H](OC(=O)[C@H](C)CC)[C@H](O)C(C)(C)[C@H](CC(=O)OC)[C@]12C

Row | Structure (SMILES) | IC50 [µM]
17 | C[C@@H]1CC[C@H]2[C@@H](C)C(=O)O[C@@H]3O[C@@]4(C)CC[C@@H]1[C@]32OO4 [ARTEMISININ] | 0.013
